The values that follow come from patent US6093732A, “4-hydroxyquinoline-3-carboxamides and hydrazides as antiviral agents” (Pharmacia & Upjohn Company, priority 1998, dated 2000).

Holding throughout (type): biochemical
Test [1] deals with T1, HCMV polymerase (Human cytomegalovirus, UniProt P08546).
T1 construct: made in house; host or cells: recombinant baculovirus-infected SF-9 cells
Description: HCMV polymerase scintillation proximity assay (SPA), modified version. The settings on record: CMV polymerase; Table 1; modified assay with 4.5 mM DTT, compounds in 100% DMSO; read-out: Antiviral Selective Polymerase IC50 Values, CMV. The procedure, abridged:
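Recombinant polymerase (baculovirus/SF-9) in 5.4 mM HEPES pH 7.5, 11.7 mM KCl, 4.5 mM MgCl2, 0.36 mg/ml BSA, 90 nM 3H-dTTP, ±2 mM CHAPS; started with 6 nM biotinylated poly(dA)-oligo(dT), 25° C or 37° C, EDTA-stopped in linear range (30 min for HCMV). Streptavidin-SPA read; IC50 by linear regression. Modified version: 100% DMSO compound dilution, 4.5 mM DTT added.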

Test [2] deals with VZV polymerase (Varicella-zoster virus, UniProt P09252). Briefly: VZV polymerase assay (procedure similar to the HCMV polymerase SPA). The settings on record: Table 1, read-out: Antiviral Selective Polymerase IC50 Values, VZV. The method, then:
(§1) The HCMV polymerase assay is performed using a scintillation proximity assay (SPA) as described in several references, such as N. D. Cook, et al., Pharmaceutical Manufacturing International, pages 49-53 (1992); K. Takeuchi, Laboratory Practice, September issue (1992); U.S. Pat. No. 4,568,649 (1986); which are incorporated by reference herein. Reactions are performed in 96-well plates. The assay is conducted in 100 μl volume with 5.4 mM HEPES (pH 7.5), 11.7 mM KCl, 4.5 mM MgCl2, 0.36 mg/ml BSA, and 90 nM ^3 H-dTTP. Assays are run with and without CHAPS, (3-[(3-Cholamidopropyl)-dimethylammonio]-1-propane-sulfonate) at a final concentration of 2 mM. HCMV polymerase is diluted in enzyme dilution buffer containing 50% glycerol, 250 mM NaCl, 10 mM HEPES (pH 7.5), 100 μg/ml BSA, and 0.01% sodium azide. The HCMV polymerase, which is expressed in recombinant baculovirus-infected SF-9 cells and purified according to literature procedures, is added at 10% (or 10 μl) of the final reaction volume, i.e., 100 μl. Compounds are diluted in 50% DMSO and 10 μl are added to each well. Control wells contain an equivalent concentration of DMSO. Unless noted otherwise, reactions are initiated via the addition of 6 nM biotinylated poly(dA)-oligo(dT) template/primer to reaction mixtures containing the enzyme, substrate, and compounds of interest. Plates are incubated in a 25° C. or 37° C. H2 O bath and terminated via the addition of 40 μl/reaction of 0.5 M EDTA (pH 8) per well. Reactions are terminated within the time-frame during which substrate incorporation is linear and varied depending upon the enzyme and conditions used, i.e., 30 min. for HCMV polymerase. Ten μl of streptavidin-SPA beads (20 mg/ml in PBS/10% glycerol) are added following termination of the reaction. Plates are incubated 10 min. at 37° C., then equilibrated to room temperature, and counted on a Packard Topcount. Linear regressions are performed and IC50 's are calculated using computer software.
(§2) A modified version of the above HCMV polymerase assay is performed as described above, but with the following changes: Compounds are diluted in 100% DMSO until final dilution into assay buffer. In the previous assay, compounds are diluted in 50% DMSO. 4.5 mM dithiotherotol (DTT) is added to the polymerase buffer. […] Other viral polymerase assays are performed using procedures similar to those described above.

In test [3] the target is HSV polymerase (Human herpesvirus 1, UniProt P04293). Briefly: HSV polymerase assay (procedure similar to the HCMV polymerase SPA). The note with it: Table 1, read-out: Antiviral Selective Polymerase IC50 Values, HSV. The protocol:
as §1, §2

Each structure is given as a SMILES string.

T1 sequence (P08546 whole entry): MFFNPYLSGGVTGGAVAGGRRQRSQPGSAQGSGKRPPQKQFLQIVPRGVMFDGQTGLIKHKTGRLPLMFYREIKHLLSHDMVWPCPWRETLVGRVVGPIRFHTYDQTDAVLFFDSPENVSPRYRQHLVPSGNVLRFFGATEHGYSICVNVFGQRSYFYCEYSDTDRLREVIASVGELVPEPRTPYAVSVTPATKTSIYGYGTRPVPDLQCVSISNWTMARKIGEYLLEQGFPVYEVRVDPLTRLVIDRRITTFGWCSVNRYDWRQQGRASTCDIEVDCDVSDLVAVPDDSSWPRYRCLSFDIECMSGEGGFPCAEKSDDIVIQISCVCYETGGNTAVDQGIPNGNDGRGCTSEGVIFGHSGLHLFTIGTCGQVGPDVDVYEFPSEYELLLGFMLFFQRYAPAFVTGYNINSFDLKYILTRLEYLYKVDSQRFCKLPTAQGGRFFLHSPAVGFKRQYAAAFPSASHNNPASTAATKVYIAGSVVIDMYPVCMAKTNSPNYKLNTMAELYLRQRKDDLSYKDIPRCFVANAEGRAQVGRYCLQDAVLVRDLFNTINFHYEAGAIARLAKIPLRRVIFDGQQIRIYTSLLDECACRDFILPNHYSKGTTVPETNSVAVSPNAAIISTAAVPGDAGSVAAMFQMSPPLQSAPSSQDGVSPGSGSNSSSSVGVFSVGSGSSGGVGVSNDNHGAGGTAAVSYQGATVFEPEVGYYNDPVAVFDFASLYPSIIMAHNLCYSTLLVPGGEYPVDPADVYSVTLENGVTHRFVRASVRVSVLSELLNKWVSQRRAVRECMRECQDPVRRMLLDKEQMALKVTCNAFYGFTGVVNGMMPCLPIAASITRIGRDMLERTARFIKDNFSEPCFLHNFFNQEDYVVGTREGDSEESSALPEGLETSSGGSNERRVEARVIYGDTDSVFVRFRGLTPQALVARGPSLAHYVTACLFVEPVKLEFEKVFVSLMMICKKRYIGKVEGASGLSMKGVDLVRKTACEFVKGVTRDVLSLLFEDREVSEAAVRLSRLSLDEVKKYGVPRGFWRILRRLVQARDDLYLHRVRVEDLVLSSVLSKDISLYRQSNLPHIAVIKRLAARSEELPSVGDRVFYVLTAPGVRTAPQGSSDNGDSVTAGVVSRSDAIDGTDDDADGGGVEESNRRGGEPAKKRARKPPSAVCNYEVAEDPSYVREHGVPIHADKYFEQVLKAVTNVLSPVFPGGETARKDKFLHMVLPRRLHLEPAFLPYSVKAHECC
VZV polymerase, sequence (P09252 whole entry): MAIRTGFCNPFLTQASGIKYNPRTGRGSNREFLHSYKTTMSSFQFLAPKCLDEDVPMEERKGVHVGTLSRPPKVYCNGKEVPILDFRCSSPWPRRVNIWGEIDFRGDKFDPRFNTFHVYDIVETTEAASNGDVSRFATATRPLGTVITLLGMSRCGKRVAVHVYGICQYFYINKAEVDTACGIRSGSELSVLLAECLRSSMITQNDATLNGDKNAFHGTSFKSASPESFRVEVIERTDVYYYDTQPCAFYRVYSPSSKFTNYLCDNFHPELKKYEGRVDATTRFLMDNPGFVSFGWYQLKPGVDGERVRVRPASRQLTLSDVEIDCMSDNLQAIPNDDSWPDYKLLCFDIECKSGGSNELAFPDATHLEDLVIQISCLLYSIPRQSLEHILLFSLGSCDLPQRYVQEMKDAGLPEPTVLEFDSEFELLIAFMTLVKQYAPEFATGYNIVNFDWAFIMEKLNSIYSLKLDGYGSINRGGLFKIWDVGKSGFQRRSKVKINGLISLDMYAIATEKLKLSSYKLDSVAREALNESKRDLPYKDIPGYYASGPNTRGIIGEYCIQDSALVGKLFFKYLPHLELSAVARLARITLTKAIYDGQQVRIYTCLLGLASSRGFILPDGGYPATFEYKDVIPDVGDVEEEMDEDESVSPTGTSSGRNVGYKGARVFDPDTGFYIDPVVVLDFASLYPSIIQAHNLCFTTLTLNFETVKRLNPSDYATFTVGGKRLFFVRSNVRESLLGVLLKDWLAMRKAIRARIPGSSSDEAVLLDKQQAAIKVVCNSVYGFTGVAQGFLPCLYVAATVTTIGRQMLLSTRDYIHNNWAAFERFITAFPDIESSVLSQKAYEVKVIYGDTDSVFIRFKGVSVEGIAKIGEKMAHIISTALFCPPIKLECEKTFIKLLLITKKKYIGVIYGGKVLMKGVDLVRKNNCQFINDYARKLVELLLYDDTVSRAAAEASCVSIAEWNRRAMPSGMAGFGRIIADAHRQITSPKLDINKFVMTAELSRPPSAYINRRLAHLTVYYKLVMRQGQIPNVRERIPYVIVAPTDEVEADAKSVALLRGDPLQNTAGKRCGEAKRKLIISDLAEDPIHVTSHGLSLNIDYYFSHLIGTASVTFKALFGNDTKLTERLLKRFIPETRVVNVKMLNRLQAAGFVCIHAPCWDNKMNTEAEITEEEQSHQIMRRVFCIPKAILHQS
HSV polymerase, sequence (P04293 whole entry): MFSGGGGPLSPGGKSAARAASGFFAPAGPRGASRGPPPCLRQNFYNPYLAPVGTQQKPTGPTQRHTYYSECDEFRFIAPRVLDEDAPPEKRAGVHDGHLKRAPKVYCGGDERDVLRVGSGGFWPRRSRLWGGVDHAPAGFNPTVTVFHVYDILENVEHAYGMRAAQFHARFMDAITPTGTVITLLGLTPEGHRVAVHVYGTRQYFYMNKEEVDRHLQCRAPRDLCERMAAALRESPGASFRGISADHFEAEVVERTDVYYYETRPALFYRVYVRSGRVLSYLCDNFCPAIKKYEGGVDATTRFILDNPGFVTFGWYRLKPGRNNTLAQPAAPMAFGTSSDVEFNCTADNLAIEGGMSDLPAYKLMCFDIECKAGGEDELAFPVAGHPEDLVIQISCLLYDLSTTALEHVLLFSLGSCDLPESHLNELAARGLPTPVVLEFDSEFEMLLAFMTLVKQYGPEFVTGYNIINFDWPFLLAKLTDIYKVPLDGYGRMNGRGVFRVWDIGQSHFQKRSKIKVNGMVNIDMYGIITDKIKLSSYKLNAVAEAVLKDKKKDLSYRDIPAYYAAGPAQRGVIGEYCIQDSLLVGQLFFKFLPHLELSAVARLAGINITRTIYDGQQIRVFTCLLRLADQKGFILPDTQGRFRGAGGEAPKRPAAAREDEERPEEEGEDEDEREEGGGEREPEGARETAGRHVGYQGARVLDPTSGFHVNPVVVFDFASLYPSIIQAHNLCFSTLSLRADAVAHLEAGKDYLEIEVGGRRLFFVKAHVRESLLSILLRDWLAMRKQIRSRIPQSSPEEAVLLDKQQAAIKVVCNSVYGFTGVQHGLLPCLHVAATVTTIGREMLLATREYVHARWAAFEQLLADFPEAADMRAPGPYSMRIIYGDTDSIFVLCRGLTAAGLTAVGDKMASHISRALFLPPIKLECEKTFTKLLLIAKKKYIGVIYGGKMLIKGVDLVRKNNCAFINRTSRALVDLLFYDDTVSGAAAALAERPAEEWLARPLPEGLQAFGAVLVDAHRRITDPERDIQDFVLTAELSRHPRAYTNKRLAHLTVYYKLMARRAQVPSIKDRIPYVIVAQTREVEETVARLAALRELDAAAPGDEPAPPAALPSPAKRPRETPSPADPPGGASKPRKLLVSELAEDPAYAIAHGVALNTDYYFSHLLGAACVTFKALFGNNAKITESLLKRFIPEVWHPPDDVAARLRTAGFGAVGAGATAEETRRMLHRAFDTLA

`COc1cc(C#CCO)cc2c(O)c(C(=O)NCc3ccc(Cl)cc3)cnc12` [Example 118, N-(4-Chlorobenzyl)-4-hydroxy-6-(3-hydroxy-1-propynyl)-8-methoxy-3-quinolinecarboxamide]: the IC50 was 670 nM in test [1], 200 nM in test [2] and 660 nM in test [3].

Consider `COCC#Cc1cc(OC)c2ncc(C(=O)NCc3ccc(Cl)cc3)c(O)c2c1` [Example 119, N-(4-Chlorobenzyl)-4-hydroxy-8-methoxy-6-(3-methoxy-1-propynyl)-3-quinolinecarboxamide], for which the results for the IC50 in test [1], in test [2] and in test [3] were 1500 nM, 570 nM and 730 nM, respectively.

For the compound `COc1cc(CCCO)cc2c(O)c(C(=O)NCc3ccc(Cl)cc3)cnc12` [Example 120, N-(4-Chlorobenzyl)-4-hydroxy-6-(3-hydroxypropyl)-8-methoxy-3-quinolinecarboxamide], the results for the IC50 in test [1], in test [2] and in test [3] were 270 nM, 80 nM and 250 nM, respectively.

For `O=C(NCc1ccc(Cl)cc1)c1cnc2c(OCCO)cc(CCCO)cc2c1O` [Example 124, N-(4-Chlorobenzyl)-4-hydroxy-8-(2-hydroxyethoxy)-6-(3-hydroxypropyl)-3-quinolinecarboxamide], the IC50 in test [1] turned out to be 250 nM; in test [2], 390 nM; in test [3] it was 600 nM.

In the case of `CC(C)(CCO)c1ccc2ncc(C(=O)NCc3ccc(Cl)cc3)c(O)c2c1` [Example 125, N-(4-Chlorobenzyl)-4-hydroxy-6-(3-hydroxy-1,1-dimethylpropyl)-3-quinolinecarboxamide], the IC50 in test [1] worked out at 870 nM; in test [2], 1700 nM; in test [3] it was 2500 nM.

`N#C/C=C/c1cc(F)c2ncc(C(=O)NCc3ccc(Cl)cc3)c(O)c2c1` [Example 133, N-(4-Chlorobenzyl)-6-[(E)-2-cyanoethenyl]-8-fluoro-4-hydroxy-3-quinolinecarboxamide]: the values for the IC50 in test [1], in test [2] and in test [3] were 4000 nM, 2200 nM and 3200 nM, respectively.

Take `O=C(NCc1ccc(Cl)cc1)c1cnc2ccc(C#CCO)cc2c1O` [Example 134, N-(4-Chlorobenzyl)-4-hydroxy-6-(3-hydroxy-1-propynyl)-3-quinolinecarboxamide]: the IC50 in test [1] is 900 nM; in test [2], 190 nM; in test [3] it was 720 nM.

In the case of `O=C(NCc1ccc(Cl)cc1)c1c[nH]c2ccc(/C=C/CO)cc2c1=O` [Example 136, N-[(4-Chlorophenyl)methyl]-1,4-dihydro-6-[(1E)-3-hydroxy-1-propenyl]-4-oxo-3-quinolinecarboxamide], the figures for the IC50 in test [1], in test [2] and in test [3] were 680 nM, 390 nM and 700 nM, respectively.

Regarding `N#CCCc1cc(F)c2ncc(C(=O)NCc3ccc(Cl)cc3)c(O)c2c1` [Example 138, N-(4-Chlorobenzyl)-6-(2-cyanoethyl)-8-fluoro-4-hydroxy-3-quinolinecarboxamide], the IC50 in test [1] was determined as 4700 nM; in test [2], 2000 nM; in test [3] it was 3500 nM.

On to `O=C(NCc1ccc(Cl)cc1)c1cnc2cc(CCCCO)ccc2c1O` [Example 140, N-(4-Chlorobenzyl)-4-hydroxy-7-(4-hydroxybutyl)-3-quinolinecarboxamide], for which the figures for the IC50 in test [1], in test [2] and in test [3] were 1400 nM, 1000 nM and 1700 nM, respectively.

For `CS(=O)(=O)OCCCc1cc(F)c2ncc(C(=O)NCc3ccc(Cl)cc3)c(O)c2c1` [Example 142, 3-(3-([(4-Chlorobenzyl)amino]carbonyl}-8-fluoro-4-hydroxy-6-quinolinyl)propyl methanesulfonate], the IC50 in test [1] was 3800 nM; in test [2] it was 2100 nM; in test [3], 2900 nM.

`O=C(NCc1ccc(Cl)cc1)c1cnc2ccc(CCCO)cc2c1O` [Example 144, N-(4-Chlorobenzyl)-4-hydroxy-6-(3-hydroxypropyl)-3-quinolinecarboxamide]: the results for the IC50 in test [1], in test [2] and in test [3] were 280 nM, 70 nM and 280 nM, respectively.

For the compound `O=C(CBr)OCCCc1cc(F)c2ncc(C(=O)NCc3ccc(Cl)cc3)c(O)c2c1` [Example 145, 3-(3-{[(4-Chlorobenzyl)amino]carbonyl}-8-fluoro-4-hydroxy-6-quinolinyl)propyl 2-bromoacetate], the results for the IC50 in test [1], in test [2] and in test [3] were 2900 nM, 2500 nM and 3500 nM, respectively.

Consider `CN(C)CC(=O)OCCCc1cc(F)c2ncc(C(=O)NCc3ccc(Cl)cc3)c(O)c2c1` [Example 148, 3-(3-{[(4-Chlorobenzyl)amino]carbonyl}-8-fluoro-4-hydroxy-6-quinolinyl)propyl 2-(dimethylamino)acetate], for which the results for the IC50 in test [1], in test [2] and in test [3] were 2400 nM, 1000 nM and 1400 nM, respectively.

`CC(O)CCc1ccc2ncc(C(=O)NCc3ccc(Cl)cc3)c(O)c2c1` (stereo not drawn) [Example 157, N-(4-Chlorobenzyl)-4-hydroxy-6-(3-hydroxybutyl)-3-quinolinecarboxamide]: the IC50 was 920 nM in test [1], 890 nM in test [2] and 1800 nM in test [3].

In the case of `O=C(NCc1ccc(Cl)cc1)c1cnc2c(F)cc(F)c(F)c2c1O` [Example 168, N-[(4-Chlorophenyl)methyl]-5,6,8-trifluoro-4-hydroxy-3-quinolinecarboxamide], the results for the IC50 in test [1], in test [2] and in test [3] were 10000 nM, 4100 nM and 8400 nM, respectively.

With `O=C(NCc1ccc(Cl)cc1)c1cnc2ccc(-c3cccs3)cc2c1O` [Example 178, N-(4-Chlorobenzyl)-4-hydroxy-6-(2-thienyl)-3-quinolinecarboxamide], the IC50 in test [1] worked out at 150 nM; in test [2], 640 nM; in test [3], 800 nM.

Take `O=C(NCc1ccc(Cl)cc1)c1cnc2ccc(OCCO)cc2c1O` [Example 179, N-(4-Chlorobenzyl)-4-hydroxy-6-(2-hydroxyethoxy)-3-quinolinecarboxamide]: the IC50 was 1800 nM in test [1], 660 nM in test [2] and 1400 nM in test [3].

As to `O=C(NCc1ccc(Cl)cc1)c1cnc2ccc(CN3CCOCC3)cc2c1O` [Example 191, N-(4-Chlorobenzyl)-4-hydroxy-6-(4-morpholinylmethyl)-3-quinolinecarboxamide], the IC50 is 500 nM in test [1], 640 nM in test [2] and 630 nM in test [3].

A word on the IC50: it is the midpoint of a concentration-inhibition curve.
